# Results as given in patent US20190059381A1, “METHOD FOR CONTROLLING PESTS OF SOYBEAN, CORN, AND COTTON PLANTS” (BASF SE, priority 2016, published 2019).
# Read-outs that look alike come from different tables or passages of the source.
# System: Brown Stink Bug (Euschistus heros)
# Experiment: Action on Brown Stink Bug (Euschistus heros) on sprayed soybean seedlings
# Assay type: in vivo
# Conditions: for mortality at 1 ppm: 1 ppm a.i.; for mortality at 10 ppm: 10 ppm a.i.
# Experimental: Action on Brown Stink Bug (Euschistus heros)
# The active compound is dissolved at the desired concentration in a mixture of 1:1 (vol:vol) distilled water: acetone.
# Soybean seedlings of Intacta® and BMX-Potencia with one pair of true leaves were sprayed with 2 ml solution using an airbrush. After dry, the plants in small pots were placed inside a transparent plastic cage and infested with 10 adults adult stage individuals. Treated cups were kept at about 25° C. Percent mortality was recorded after 3 and 7 days after application.
# [1] = 72 h, BMX-POTENCIA soybean seedlings, 3 days after application, adults, read-out: mortality 3 DAA
# [2] = 72 h, INTACTA soybean seedlings, 3 days after application, adults, read-out: mortality 3 DAA
# [3] = 168 h, BMX-POTENCIA soybean seedlings, 7 days after application, adults, read-out: mortality 7 DAA
# [4] = 168 h, BMX-POTENCIA soybean seedlings, 7 days after application, corrected according to Abbott, read-out: mortality (Abbott %) 7 DAA
# [5] = 168 h, INTACTA soybean seedlings, 7 days after application, adults, read-out: mortality 7 DAA
# [6] = 168 h, INTACTA soybean seedlings, 7 days after application, corrected according to Abbott, read-out: mortality (Abbott %) 7 DAA
smiles,measurement,setting,value
CCN1OC[C@@H](NC(=O)c2ccc(C3=NOC(c4cc(Cl)cc(Cl)c4)(C(F)(F)F)C3)cc2C)C1=O (stereo partly drawn) [Compound I.1],mortality at 1 ppm,[1],7.5%
same,mortality at 10 ppm,[1],17.5%
same,mortality at 1 ppm,[2],12.5%
same,mortality at 10 ppm,[2],17.5%
same,mortality at 1 ppm,[3],50%
same,mortality at 1 ppm,[4],42.9%
same,mortality at 10 ppm,[3],82.5%
same,mortality at 10 ppm,[4],80%
same,mortality at 1 ppm,[5],57.5%
same,mortality at 1 ppm,[6],50%
same,mortality at 10 ppm,[5],85%
same,mortality at 10 ppm,[6],82.4%
